# Assay results from paper PMC3592791, “Fluorescence-Based High-Throughput Functional Profiling of Ligand-Gated Ion Channels at the Level of Single Cells” (PLoS ONE, 2013).
# Legend:
# [1] = target: T1, α3 GlyR (Homo sapiens, UniProt O75311); details: Fig. 3A
# T1 sequence (O75311 34-464): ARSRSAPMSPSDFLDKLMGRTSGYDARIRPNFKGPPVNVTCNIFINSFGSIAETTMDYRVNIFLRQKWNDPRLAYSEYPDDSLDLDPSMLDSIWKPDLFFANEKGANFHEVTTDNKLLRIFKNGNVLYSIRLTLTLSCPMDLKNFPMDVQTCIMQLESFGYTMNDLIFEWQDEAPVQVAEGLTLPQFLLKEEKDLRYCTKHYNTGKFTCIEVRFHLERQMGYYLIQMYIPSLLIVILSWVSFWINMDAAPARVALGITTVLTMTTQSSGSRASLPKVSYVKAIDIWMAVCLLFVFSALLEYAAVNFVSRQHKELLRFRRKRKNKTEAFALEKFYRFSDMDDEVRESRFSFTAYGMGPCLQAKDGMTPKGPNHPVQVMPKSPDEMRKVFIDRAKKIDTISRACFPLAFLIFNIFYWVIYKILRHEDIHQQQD
# Procedure: plated into 60-mm culture dishes and were transfected when approx. 80% confluent. YFP and GlyR chloride channel subunits were transfected in 1∶1 (YFP and α1-3 GlyR homomers) or 2∶1∶1 ratio (YFP, GlyR α1-3 homo and α1-3β GlyR heteromers) with a total cDNA quantity of 1 µg. Cells were transfected using calcium phosphate precipitation transfection technique, as described in Sambrook et al. [37]. Transfection efficiency varies from 20 to 60%. We routinely achieve a correlation of 80 to 90% between cells expressing YFP and cells expressing GlyRs.
# Following termination of transfection, cells were trypsinized by adding 0.7 mL of 0.25% trypsin–EDTA solution (Gibco BRL), resuspended into DMEM, and 2.5×10^3 cells, suspended in 40 µL DMEM, were plated into each well of a transparent 384-well plate for fluorescence imaging experiments. Cells were used in experiments 24 h later. Individual wells typically contained 5×10^3 cells at the time of the experiment. Approximately 1 h prior to commencement of experiments culture media in 384-well plates were removed by turning the plate upside-down onto a stack of tissue and were left for approximately 30 sec until culture media was entirely removed from the wells. […]
# (§9) Images of fluorescent cells were segmented and quantitatively analyzed using a modified version of DetecTIFF® software [40]. In brief, images were segmented using an iterative size and intensity-based thresholding algorithm and the fluorescence signal of identified cells was calculated as the mean of all pixel values within the area of a cell.
# • Goodness of fit (R^2, ≥0.9), to include curve fits that represent the data points to a high degree. • Dynamic range of fluorescence change (ΔF, 20–100%), to include cells co-expressing both, YFPI152L and GlyRs.
# Filter ranges for enrichment of functional data were determined empirically by biological relevance.
# [2] = target: T2, α3β GlyR (Homo sapiens, UniProt O75311+P48167); details: read-out: Median half-maximal activation by glycine (EC50), control conditions; no drug, Fig. 4F, n = 122
# T2 sequence (P48167 23-497, one chain of several): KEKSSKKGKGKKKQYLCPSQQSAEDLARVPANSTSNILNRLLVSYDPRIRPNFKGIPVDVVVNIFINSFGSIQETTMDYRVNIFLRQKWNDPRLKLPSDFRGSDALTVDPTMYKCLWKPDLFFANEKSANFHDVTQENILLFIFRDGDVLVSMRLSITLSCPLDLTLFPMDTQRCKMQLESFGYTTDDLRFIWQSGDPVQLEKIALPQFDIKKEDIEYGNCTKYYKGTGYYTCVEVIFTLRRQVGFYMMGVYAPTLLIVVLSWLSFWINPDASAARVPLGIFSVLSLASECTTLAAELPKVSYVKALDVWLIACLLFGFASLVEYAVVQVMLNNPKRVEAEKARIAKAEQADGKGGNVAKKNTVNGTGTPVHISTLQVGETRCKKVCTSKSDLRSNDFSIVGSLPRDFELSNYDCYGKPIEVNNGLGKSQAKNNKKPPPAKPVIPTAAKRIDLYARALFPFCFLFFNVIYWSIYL
# Procedure: plated into 60-mm culture dishes and were transfected when approx. 80% confluent. YFP and GlyR chloride channel subunits were transfected in 1∶1 (YFP and α1-3 GlyR homomers) or 2∶1∶1 ratio (YFP, GlyR α1-3 homo and α1-3β GlyR heteromers) with a total cDNA quantity of 1 µg. Cells were transfected using calcium phosphate precipitation transfection technique, as described in Sambrook et al. [37]. Transfection efficiency varies from 20 to 60%. We routinely achieve a correlation of 80 to 90% between cells expressing YFP and cells expressing GlyRs. […]
# Following termination of transfection, cells were trypsinized by adding 0.7 mL of 0.25% trypsin–EDTA solution (Gibco BRL), resuspended into DMEM, and 2.5×10^3 cells, suspended in 40 µL DMEM, were plated into each well of a transparent 384-well plate for fluorescence imaging experiments. […]
# as §9
# • Goodness of fit (R^2, ≥0.9), to include curve fits that represent the data points to a high degree. • Dynamic range of fluorescence change (ΔF, 20–100%), to include cells co-expressing both, YFPI152L and GlyRs. […]
# [3] = target: T3, α2 GlyR (Homo sapiens, UniProt P23416); format: cell-based
# T3 construct: expressed in transfected cells; host or cells: HEK293
# T3 sequence (P23416 28-452): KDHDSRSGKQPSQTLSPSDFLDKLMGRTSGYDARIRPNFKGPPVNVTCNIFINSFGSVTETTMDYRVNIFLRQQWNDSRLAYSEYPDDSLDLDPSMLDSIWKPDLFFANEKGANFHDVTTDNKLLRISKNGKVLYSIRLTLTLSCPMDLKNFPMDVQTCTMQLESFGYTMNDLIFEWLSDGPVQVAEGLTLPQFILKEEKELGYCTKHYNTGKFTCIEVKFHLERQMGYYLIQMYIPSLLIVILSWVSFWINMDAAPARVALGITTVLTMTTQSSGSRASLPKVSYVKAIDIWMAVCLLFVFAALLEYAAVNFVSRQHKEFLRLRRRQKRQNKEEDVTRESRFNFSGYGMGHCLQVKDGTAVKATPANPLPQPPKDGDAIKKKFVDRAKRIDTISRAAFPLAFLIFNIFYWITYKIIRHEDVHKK
# Procedure: (§1) plated into 60-mm culture dishes and were transfected when approx. 80% confluent. YFP and GlyR chloride channel subunits were transfected in 1∶1 (YFP and α1-3 GlyR homomers) or 2∶1∶1 ratio (YFP, GlyR α1-3 homo and α1-3β GlyR heteromers) with a total cDNA quantity of 1 µg. Cells were transfected using calcium phosphate precipitation transfection technique, as described in Sambrook et al.. […] We have published a detailed comparison of five transient transfection methods employed routinely in the laboratory for this purpose.
# (§2) The human α1, α2 and α3 GlyR plasmid DNAs were subcloned into the pcDNA3.1 plasmid vector and the human β subunit plasmid DNA was subcloned into pIRES2-EGFP plasmid vector. The UniprotKB accession numbers for the DNAs are as follows (with gene name in brackets): α1 (GLRA1): P23415, α2 (GLRA2): P23416, α3 (GLRA3): O75311 and β(GLRB): P48167.
# (§3) Following termination of transfection, cells were trypsinized by adding 0.7 mL of 0.25% trypsin–EDTA solution (Gibco BRL), resuspended into DMEM, and 2.5×10^3 cells, suspended in 40 µL DMEM, were plated into each well of a transparent 384-well plate for fluorescence imaging experiments. Cells were used in experiments 24 h later. Individual wells typically contained 5×10^3 cells at the time of the experiment. Approximately 1 h prior to commencement of experiments culture media in 384-well plates were removed by turning the plate upside-down onto a stack of tissue and were left for approximately 30 sec until culture media was entirely removed from the wells. The culture media was replaced by 20 µL standard control solution, which contained (in mM) NaCl 140, KCl 5, CaCl2 2, MgCl2 1, HEPES 10, and glucose 10 (pH 7.4) using NaOH. […] For drug screening experiments agonist solutions were supplemented with strychnine (10, 30, 100 µM), picrotoxin (10, 100 µM) and lindane (10, 100 µM) respectively. Drugs were diluted from stocks in agonist solution according to desired final concentrations. […] Experiments were conducted at room temperature (19–22°C).
# (§4) The maximum image acquisition rate was 1.25 Hz. Solutions containing agonist and drug were pipetted into a 384-well plate and placed onto LC PAL sample holder platform. Liquid handling was performed with the autosampler described above. Solutions were applied to cells at a rate of 0.6 ml/min.
# (§5) Images of fluorescent cells were segmented and quantitatively analyzed using a modified version of DetecTIFF® software. In brief, images were segmented using an iterative size and intensity-based thresholding algorithm and the fluorescence signal of identified cells was calculated as the mean of all pixel values within the area of a cell.
# (§6) This VI uses the Levenberg-Marquardt algorithm to determine the set of parameters that best fit the set of input data points (X, Y) as expressed by the nonlinear function: [drawing 1] where a is the set of parameters. The curve model is defined by the following equation: […]
# [4] = target: T4, α1 GlyR (Homo sapiens, UniProt P23415); format: cell-based
# T4 construct: expressed in transfected cells; host or cells: HEK293
# T4 sequence (P23415 29-457): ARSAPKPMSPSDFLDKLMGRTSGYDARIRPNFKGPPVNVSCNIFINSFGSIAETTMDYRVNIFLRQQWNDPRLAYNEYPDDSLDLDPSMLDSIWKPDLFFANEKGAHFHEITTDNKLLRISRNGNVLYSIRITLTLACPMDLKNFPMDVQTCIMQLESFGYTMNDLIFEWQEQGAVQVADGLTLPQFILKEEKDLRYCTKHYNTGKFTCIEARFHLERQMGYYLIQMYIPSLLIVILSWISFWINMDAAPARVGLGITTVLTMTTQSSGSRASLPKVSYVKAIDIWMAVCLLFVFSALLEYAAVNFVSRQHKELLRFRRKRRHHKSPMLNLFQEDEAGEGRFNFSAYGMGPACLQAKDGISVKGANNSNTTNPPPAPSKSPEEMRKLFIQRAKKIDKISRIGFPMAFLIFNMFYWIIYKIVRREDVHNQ
# Procedure: as §1, §2, §3, §4, §5, §6
# [5] = target: T1, α3 GlyR; assay: Whole-cell patch-clamp electrophysiology, α3 GlyR; format: cell-based; parameters: expressed in transfected cells; host or cells: HEK293; details: read-out: % block of EC50 glycine current; 100 µM lindane, HEK293 cells, -40 mV, 4–7 cells, Fig. 5B
# Procedure: (§7) Cells were transfected as described above and plated onto glass coverslips in 3 cm culture dishes. Coverslips containing cells were placed in a recording chamber on the stage of an inverted fluorescent microscope and currents were recorded using the whole-cell patch-clamp configuration. Cells were perfused by extracellular solution containing (in mM): 140 NaCl, 5 KCl, 2 CaCl2, 1 MgCl2, 10 HEPES/NaOH and 10 glucose (pH 7.4 adjusted with NaOH). Patch pipettes were fabricated from borosilicate hematocrit tubing (Hirschmann Laborgeraete, Eberstadt, Germany) and heat polished. […] After establishment of the whole-cell recording configuration, cells were voltage clamped at −40 mV and membrane currents were recorded using an Axopatch 1D and pClamp 10 software (Molecular Devices). Currents were filtered at 500 Hz and digitized at 2 KHz.
# (§8) Because αsubunits can form functional receptors with or without β subunits, it was necessary to confirm that the expressed receptors incorporated β subunits. As the GlyR β subunit cDNA was cloned into the pIRES2-EGFP plasmid vector, we used green fluorescent protein fluorescence to identify cells transfected with the GlyR β subunit. The successful incorporation of β subunits into functional heteromeric GlyRs was also confirmed pharmacologically by their characteristic reduction in […] sensitivity as described below.
# [6] = target: T2, α3β GlyR; assay: Whole-cell patch-clamp electrophysiology, α3β GlyR; format: cell-based; parameters: expressed in transfected cells; host or cells: HEK293; details: read-out: % block of EC50 glycine current; 100 µM lindane, HEK293 cells, -40 mV, 4–7 cells, Fig. 5B
# Procedure: as §7, §8
# [7] = target: T5, α2β GlyR (Homo sapiens, UniProt P23416+P48167); assay: Whole-cell patch-clamp electrophysiology, α2β GlyR; format: cell-based; details: read-out: % block of EC50 glycine current; 100 µM lindane, HEK293 cells, -40 mV, 4–7 cells, Fig. 5B
# T5 construct: expressed in transfected cells; host or cells: HEK293
# T5 sequence (P48167 23-497, one chain of several): as the sequence (P48167 23-497, one chain of several) above
# Procedure: as §7, §8
# [8] = target: T3, α2 GlyR; assay: Whole-cell patch-clamp electrophysiology, α2 GlyR; format: cell-based; details: read-out: % block of EC50 glycine current; 100 µM lindane, HEK293 cells, -40 mV, 4–7 cells, Fig. 5B
# Procedure: as §7, §8
# [9] = target: T5, α2β GlyR; format: cell-based; details: drugs at 10 and 100 µM, Fig. 6A
# Procedure: as §1, §2, §3, §4, §5, §6
compound,measurement,setting,value
NCC(=O)O [glycine],"Slope value, averaged",[1]; glycine dose-response,0.91±0.03
same,"Slope values, range over single cells",[1]; glycine dose-response,0.39–3.43
same,EC50,"[1]; read-out: Averaged glycine EC50, HEK293 cells, individual well, n = 212 cells",186 ± 17 µM
same,EC50,[2],46.8 ± 4 µM
same,"Slope value, averaged",[3],2.92±0.09
same,"Slope values, range over single cells",[3],0.51–4.73
same,"Slope value, averaged",[4],1.19±0.03
same,"Slope values, range over single cells",[4],0.47–1.92
"Cl[C@H]1[C@H](Cl)[C@@H](Cl)[C@@H](Cl)[C@H](Cl)[C@H]1Cl [lindane, γ-hexachlorocyclohexane]",inhibition at 100 µM,[5],96 ± 4%
same,inhibition at 100 µM,[6],14 ± 3%
same,inhibition at 100 µM,[7],23 ± 4%
same,inhibition at 100 µM,[8],94 ± 5%
same,Effect on receptor (color map of median glycine EC50),[9],no inhibition
O=C1C[C@@H]2OCC=C3CN4CC[C@]56c7ccccc7N1[C@H]5[C@H]2[C@H]3C[C@H]46 [strychnine],Effect on receptor (color map of median glycine EC50),[9],inhibition
picrotoxin,Effect on receptor (color map of median glycine EC50),"[3]; drugs at 10 and 100 µM, Fig. 6A",overall less block of homomeric α2 GlyRs by picrotoxin compared to lindane
same,Effect on receptor (color map of median glycine EC50),[9],no inhibition
